Measurements from PubChem BioAssay (NCI).
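Each compound was tested at five concentrations against cells in 96-well plates for 48 hours. TGI marks complete inhibition of growth.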

What was measured:
Test in all cases: inhibition of tumour cell growth, NCI panel, 48 h
ACHN renal = tested on: ACHN renal
EKVX NSCLC = tested on: EKVX NSCLC
HCT-15 colon = tested on: HCT-15 colon
MALME-3M melanoma = tested on: MALME-3M melanoma
MOLT-4 leukemia = tested on: MOLT-4 leukemia
NCI-H522 lung = tested on: NCI-H522 lung
SNB-19 CNS = tested on: SNB-19 CNS
SR leukemia = tested on: SR leukemia
UACC-62 melanoma = tested on: UACC-62 melanoma
HS 578T breast = tested on: HS 578T breast
IGROV1 ovarian = tested on: IGROV1 ovarian
MCF7 breast = tested on: MCF7 breast
OVCAR-3 ovarian = tested on: OVCAR-3 ovarian

Compound | TGI (ACHN renal) [µM] | TGI (EKVX NSCLC) [µM] | TGI (HCT-15 colon) [µM] | TGI (MALME-3M melanoma) [µM] | TGI (MOLT-4 leukemia) [µM] | TGI (NCI-H522 lung) [µM] | TGI (SNB-19 CNS) [µM] | TGI (SR leukemia) [µM] | TGI (UACC-62 melanoma) [µM] | TGI (HS 578T breast) [µM] | TGI (IGROV1 ovarian) [µM] | TGI (MCF7 breast) [µM] | TGI (OVCAR-3 ovarian) [µM]
O=C(CSc1nnc(-c2ccc(N=Cc3ccc(Cl)cc3)cc2)o1)Nc1ccccc1[N+](=O)[O-] | > 100 | > 100 | > 100 | > 100 | > 100 | > 100 | > 100 | > 100 | > 100 |  |  |  | 
O=C1/C(=C\c2ccc(O)cc2)CCC/C1=C/c1ccc(Cl)c(Cl)c1 | 12.1 | 20 | 9.75 | 17.5 | 5.8 |  | 18.3 |  | 5.24 | 21.5 | 1.17 | 14.9 | 9.73
C/C(CC(=O)Nc1ccc([N+](=O)[O-])cc1)=N\NC(N)=O | > 100 | > 100 | > 100 | > 100 | > 100 | > 100 | > 100 | 45.8 | > 100 |  | > 100 |  | > 100
CC(=O)OC1COC(n2c(O)c(N=NC(N)=S)c3cc(Br)ccc32)C(OC(C)=O)C1OC(C)=O (stereo unspecified) | > 100 | > 100 | > 100 | > 100 | > 100 | > 100 | > 100 | > 100 | > 100 |  | > 100 |  | > 100
O=[N+]([O-])/C(C(Cl)=C(Cl)Cl)=C(\N1CCOCC1)n1nnc2ccccc21 | 34.9 | 35.2 | 29.6 | 35.1 | 72.3 | 34.1 | 33.7 |  | 46.7 |  |  | 56.1 | 42.2
C/C(=N\NS(=O)(=O)c1ccc(C)cc1)C(CN1CCCCC1)C(c1ccccc1)c1c(O)c2ccccc2oc1=O (stereo unspecified) | > 100 | > 100 | > 100 | > 100 |  | > 100 | > 100 | > 100 | > 100 |  | > 100 |  | > 100
CCCCOC(=O)C1C2CCC(O2)C1C(=O)OCCCC (stereo unspecified) | > 100 | > 100 | > 100 | > 100 | > 100 | > 100 | > 100 |  | > 100 |  | > 100 |  | > 100
COC(=O)C(=O)C(C(=O)C(=O)Nc1ccc(F)cc1)c1nc2ccc([N+](=O)[O-])cc2[nH]c1=O (stereo unspecified) |  | > 100 | > 100 | > 100 |  | > 100 | > 100 | > 100 |  |  | > 100 |  | > 100
COc1ccc2c3c1O[C@]1(C)C34CCN(C)C(C2)C42C=C[C@@]1(OC)c1c(O)ccc(O)c12 | > 100 | > 100 |  | > 100 | > 100 | > 100 | > 100 |  |  |  | > 100 |  | > 100
NC(=O)N/N=C(\CC1OC(=O)c2ccccc21)c1ccco1 (stereo unspecified) | > 100 | > 100 | > 100 | > 100 | > 100 | > 100 | > 100 |  | > 100 |  | > 100 |  | > 100
COC(=O)N/N=C(\Cc1ccccc1)CN(C)C | > 100 | > 100 |  | > 100 | > 100 | > 100 |  |  | > 100 |  | > 100 |  | > 100
CS(=O)(=O)c1nc(-c2cc3c(c(S(C)(=O)=O)n2)CCC3)cc2c1CCCCC2 | > 100 | > 100 | > 100 | 99.6 | > 100 | 58.9 | > 100 |  | 80 | 40 | 63.7 |  | > 100
O=c1[nH]c2cc([N+](=O)[O-])ccc2nc1/C(=N/Nc1ccccc1)C(O)c1ccccc1Cl (stereo unspecified) | > 100 | > 100 | 36.3 | > 100 | > 100 | > 100 | > 100 |  | > 100 |  | > 100 |  | > 100
Nc1ccnc(=O)[nH]1 | > 100 | > 100 | > 100 | > 100 |  | > 100 |  |  | > 100 |  | > 100 |  | > 100
CCOC(=O)N1CCN(C=S)CC1 | > 100 | > 100 | > 100 | > 100 | > 100 | > 100 | > 100 | > 100 | > 100 |  | > 100 |  | > 100
O=c1[nH]c2cc(Cl)ccc2nc1/C(=N\O)C(O)c1cccc([N+](=O)[O-])c1 (stereo unspecified) | > 100 | > 100 |  | > 100 | > 100 | > 100 | > 100 |  | > 100 |  | > 100 |  | > 100
CCCCNc1nc(C#N)c(N)s1 | > 100 |  | > 100 | > 100 | > 100 | > 100 | > 100 | > 100 | > 100 |  | > 100 |  | > 100
O=C(c1cccs1)N(C(=S)N1CCN(c2ccccn2)CC1)c1ccccc1 | > 100 |  | > 100 | > 100 | > 100 | > 100 | > 100 | > 100 | > 100 |  | > 100 |  | > 100
C(=C\c1cccs1)/c1cccc(/C=C/c2cccs2)n1 | 38.9 | > 100 | > 100 | 3.21 | > 100 |  | > 100 | > 100 | > 100 |  | > 100 | > 100 | > 100
Cn1cc2ccccc2c1-c1nc(F)nc(F)n1 | > 100 | > 100 | > 100 | > 100 | > 100 | > 100 | > 100 | > 100 |  |  | > 100 |  | > 100
CN(C)Nc1cc(=O)[nH]c(=O)[nH]1 | > 100 | > 100 | > 100 | > 100 | > 100 |  | > 100 | > 100 |  |  | > 100 | > 100 | > 100

Compound | TGI (ACHN renal) [µM] | TGI (EKVX NSCLC) [µM] | TGI (HCT-15 colon) [µM] | TGI (MALME-3M melanoma) [µM] | TGI (MOLT-4 leukemia) [µM] | TGI (NCI-H522 lung) [µM] | TGI (SNB-19 CNS) [µM] | TGI (SR leukemia) [µM] | TGI (UACC-62 melanoma) [µM] | TGI (HS 578T breast) [µM] | TGI (IGROV1 ovarian) [µM] | TGI (MCF7 breast) [µM] | TGI (OVCAR-3 ovarian) [µM]
CCOC(=O)c1cccn1S(=O)(=O)c1cc(Cl)ccc1NC(=O)CC | > 100 | > 100 | > 100 |  | > 100 | 63.1 | > 100 |  | > 100 | > 100 | > 100 | > 100 | > 100
CC1C2(C)OC(=N)C(C#N)(C(c3ccccc3)O2)C1(C#N)C#N (stereo unspecified) | > 100 | 56.6 | 22.9 | 90.3 | > 100 |  | > 100 |  | 56.4 | 78.6 | > 100 | 49.3 | 29.1
C[C@]12CCC(=O)C=C1CC[C@@H]1[C@@H]2CC[C@]2(C)C(=O)NC(=O)C[C@@H]12 | > 100 | > 100 | > 100 | > 100 | > 100 | > 100 | > 100 | > 100 | > 100 |  | > 100 |  | > 100
CNS(=O)(=O)NN(C)S(=O)(=O)c1ccccc1 | > 100 | > 100 | > 100 | > 100 | > 100 | > 100 | > 100 | > 100 | > 100 |  | > 100 |  | 
Cn1cc(C(=O)NCCC(=N)N)cc1NC(=O)C1=[N+](C)C=C(NC(=O)c2cccc(C(=O)NC3=CC(C(=O)Nc4cc(C(=O)NCCC(=N)N)cn4C)=[N+](C)C3)c2)C1 | > 100 | > 100 | > 100 | > 100 | > 100 | > 100 | > 100 | > 100 | > 100 |  | > 100 |  | > 100
C=Cc1ccc(C)[n+](C[Si](C)(C)O[Si](C)(C)C)c1 | > 100 | > 100 | > 100 | > 100 | > 100 | > 100 | > 100 | > 100 | > 100 |  | > 100 |  | > 100
CC(=O)OCC1=C(CCC#N)N2C(=O)C(NC(=O)Cc3cccs3)C2S(=O)C1 (stereo unspecified) | > 100 | > 100 | > 100 | > 100 | > 100 | > 100 | > 100 | > 100 | > 100 |  | > 100 |  | > 100
CCN(CC)c1c(C(=O)/C=C/c2ccc(OC)cc2)c(-c2ccccc2)nn(C)c1=O | > 100 | 69.6 |  | 35.1 | 19.8 |  | 45.9 | 44.7 | 28.5 |  | 68.8 |  | 
COC(=O)[C@@H]1CN(C(C)=O)C(=O)N1 | > 100 | > 100 | > 100 | > 100 | > 100 | > 100 | > 100 |  | > 100 | > 100 | > 100 |  | > 100
Oc1ccccc1/C=C/c1csnn1 | > 100 | > 100 | > 94.3 | > 100 | > 100 | > 100 | > 100 | > 68 | > 100 |  | > 100 |  | > 100
C=C(C)C1=CCC[C@]2(C1)N=C(OC)[C@@H](C(C)C)N=C2OC | > 100 | > 100 | > 100 | > 100 | > 100 | > 100 | > 100 |  | > 100 | > 100 | > 100 | > 100 | > 100
NC1=C(NC(=O)Cc2ccc(F)cc2)C(=O)c2ccccc2C1=O | > 100 | > 100 | > 100 | > 100 | > 100 | > 70.1 | 59 | > 100 | > 100 |  | 59.4 |  | > 100
O=c1oc2ccc3ccccc3c2cc1-c1cn2ccccc2n1 | 94.2 | > 100 | > 100 |  | > 100 | > 100 |  | > 100 | > 100 | > 100 | > 100 |  | > 100
O=C1NC2ON=C(c3ccccc3)C2C2ON=C(c3ccccc3)N12 (stereo unspecified) | > 100 | > 100 | > 100 | > 100 |  | > 100 | > 100 |  | > 100 | > 100 | > 100 | > 100 | > 100
COc1cc2c(oc(=O)c3c4oc([Si](C)(C)C)cc4cc(OC)c23)c2cccc(OCc3ccccc3)c12 | > 100 | > 100 | > 100 | > 71.5 | > 100 | > 100 | 64.1 | > 100 | 37.6 |  | > 100 |  | > 77.9
Nc1ncnn2c(C3OC(CO)C(O)C3O)ccc12 (stereo unspecified) | 0.645 | 4.23 | 0.771 | 0.285 | 0.455 | 1.97 | 25.4 | 0.837 | 0.358 | 0.275 | 0.562 |  | 0.52
CCc1n[nH]c(=O)n1/N=C/c1c(O)ccc2ccccc12 | > 100 | > 100 | > 100 |  | > 100 | > 100 | > 100 | > 100 | > 100 |  | > 100 | > 100 | > 100
COC(=O)C1(CCC(C)=O)CCCCCC1=O (stereo unspecified) | > 100 | > 100 | > 100 | > 100 | > 100 | > 100 | > 100 | > 100 | > 100 |  | > 100 | > 100 | > 100
c1ccc2c(c1)cc(C1NCCc3[nH]cnc31)c1ccccc12 (stereo unspecified) | > 61.9 | > 100 | > 100 | > 100 | 61.7 | > 68.5 | > 100 | 61.1 | > 51.1 |  | > 100 |  | > 100
CCSc1[nH]c(NC(=S)NC(=O)c2ccccc2Cl)c(C(N)=O)c1C(N)=O |  | > 10 | > 10 | > 10 | > 10 |  |  | > 10 | > 10 |  | > 10 | > 10 | 
